Test results taken from patent publication US20080280837A1, “Biologically Active Compounds with Anti-Angiogenic Properties” (priority 2004, published 2008).

Assays:
SSTR-4 = target: T1, SSTR-4 (Homo sapiens, UniProt P31391); assay: Radioligand binding screen against somatostatin subtype SSTR-4 (SST4 assay); conditions: Table 8; read-out: Ki SSTR4
T1 construct: expressed in transfected cells
Procedure: (§1) Receptor membrane preparations containing the desired cloned receptor (for example cloned human somatostatin receptor subtype 5, SSTR5) and radio-labeled ligand (for example 3-[^125I]iodotyrosyl^11 Somatostatin-14)) were diluted at the concentration required for testing and according to the specific parameters associated with the selected receptor-ligand combination, including receptor Bmax, ligand Kd and any other parameters necessary to optimize the experimental conditions. When tested for competition activity to the reference ligand, “compound 1” was mixed with membrane suspension and the radiolabeled reference ligand (with or without an excess of cold ligand to the receptor for determination of non-specific binding) and incubated at the temperature required by internal standard operating procedures. Following incubation, the binding reaction was stopped by the addition of ice-cold washing buffer and filtered on appropriate filters, which are then counted. Data analysis and curve-fitting was performed with XLfit (IDBS).
(§2) 10 mM solutions of test compounds in 100% DMSO were prepared. ˜160 μl was used for each dilution (20 μl/well in triplicate).
(§3) A 1.25 mM assay stock was prepared by making a 1:8 dilution of the 10 mM solution. (To 30 μL of the 10 mM solution was added 210 μL milli-Q H2O. A 1:5 dilution series in milli-Q H2O was then prepared.
Assays were performed in triplicate at each concentration within the 1:5 dilution series: 250 μM, 50 μM, 10 μM, […], 0.4 μM, 0.08 μM, 0.016 μM, 0.0032 μM, etc. (for SST4 assay) and 125 μM, 10 μM, 2 μM, 1 μM, 0.5 μM, etc (for SST5 assay).
(§4) In primary screening experiments compounds were tested in duplicate for a particular concentration.

SSTR-2 = target: T2, SSTR-2 (Homo sapiens, UniProt P30874); assay: Radioligand binding screen against somatostatin subtype SSTR-2; conditions: Table 8; read-out: Ki SSTR2
T2 construct: expressed in transfected cells
T2 sequence (P30874 whole entry): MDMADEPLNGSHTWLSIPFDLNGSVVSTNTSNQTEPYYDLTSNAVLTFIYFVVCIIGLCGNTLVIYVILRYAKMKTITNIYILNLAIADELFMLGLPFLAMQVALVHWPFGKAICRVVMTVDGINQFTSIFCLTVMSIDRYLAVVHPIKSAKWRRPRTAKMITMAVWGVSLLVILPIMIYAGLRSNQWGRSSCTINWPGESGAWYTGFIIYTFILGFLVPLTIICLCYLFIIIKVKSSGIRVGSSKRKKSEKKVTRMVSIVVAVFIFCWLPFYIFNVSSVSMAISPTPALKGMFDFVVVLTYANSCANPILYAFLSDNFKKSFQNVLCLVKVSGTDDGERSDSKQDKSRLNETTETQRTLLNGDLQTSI
Procedure: as §1, §2, §3, §4

[1] = test system: Human Umbilical Vein Endothelial Cells (HUVEC); assay: Endothelial cell proliferation assay (MTS); assay type: cell-based; conditions: 48 hrs
Procedure: Human Umbilical Vein Endothelial Cells (HUVEC from Clonetics) were plated in 96 well plates at 1000 cell per well in EGM-2 medium (Clonetics). Cells were grown overnight at 37° C. in 5% CO2. Fresh EGM-2 medium containing compound at the desired concentration was added to the wells and the cells allowed to grow for a further 48 hrs. A MTS (Promega) colorimetric assay was performed after 48 hrs to determine cell growth according to the manufacturers instructions. Results are presented in terms of percentage growth.

[2] = target: T3, Human SST5 somatostatin receptor (SSTR5) (Homo sapiens, UniProt P35346); assay: Filter plate assay for SST5 receptor, displacement of [125I]SST-14; assay type: binding; conditions: Table 8
T3 construct: expressed in transfected cells; host or cells: HEK-293 EBNA
T3 sequence (P35346 whole entry): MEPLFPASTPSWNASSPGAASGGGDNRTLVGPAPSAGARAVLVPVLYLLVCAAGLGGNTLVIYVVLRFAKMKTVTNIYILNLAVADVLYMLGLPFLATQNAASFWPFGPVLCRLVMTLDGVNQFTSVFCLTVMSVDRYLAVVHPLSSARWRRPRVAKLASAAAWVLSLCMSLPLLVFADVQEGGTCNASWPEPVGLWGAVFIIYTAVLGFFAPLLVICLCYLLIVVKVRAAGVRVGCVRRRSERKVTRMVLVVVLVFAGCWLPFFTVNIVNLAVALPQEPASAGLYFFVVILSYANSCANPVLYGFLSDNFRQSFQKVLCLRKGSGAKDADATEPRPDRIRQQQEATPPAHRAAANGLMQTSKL
How it was run: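 HEK-293 EBNA membranes expressing human SST5 (5.5 μg) incubated 60 min at 25 °C with 4 nM [125I]SST-14 and compound in pH 7.5 Tris/EGTA/MgCl2/sucrose buffer. Bound radioactivity collected on PEI-coated glass fiber filters and counted; triplicate 1:5 dilution series from 125 μM, non-specific binding with excess cold ligand.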

SSTR-3 = target: T4, SSTR-3 (Homo sapiens, UniProt P32745); assay: Radioligand binding screen against somatostatin subtype SSTR-3; conditions: Table 8; shown where Ki could not be determined (NoModel); read-out: IC50 SSTR3 (in parentheses)
T4 construct: expressed in transfected cells
T4 sequence (P32745 whole entry): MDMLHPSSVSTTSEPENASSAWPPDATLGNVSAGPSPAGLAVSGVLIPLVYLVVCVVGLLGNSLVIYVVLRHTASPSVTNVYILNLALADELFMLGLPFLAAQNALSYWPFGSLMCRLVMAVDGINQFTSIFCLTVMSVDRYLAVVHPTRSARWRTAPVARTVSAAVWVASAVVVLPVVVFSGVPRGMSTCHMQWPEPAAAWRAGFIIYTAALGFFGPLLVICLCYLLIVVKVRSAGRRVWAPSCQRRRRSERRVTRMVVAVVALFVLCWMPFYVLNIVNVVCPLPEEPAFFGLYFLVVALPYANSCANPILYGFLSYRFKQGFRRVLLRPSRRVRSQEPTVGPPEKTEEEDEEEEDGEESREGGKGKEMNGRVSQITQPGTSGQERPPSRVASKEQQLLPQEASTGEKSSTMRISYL
Procedure: as §1, §2, §3, §4

SSTR-1 = target: T5, SSTR-1 (Homo sapiens, UniProt P30872); assay: Radioligand binding screen against somatostatin subtype SSTR-1; conditions: Table 8; read-out: Ki SSTR1
T5 construct: expressed in transfected cells
T5 sequence (P30872 whole entry, species assumed): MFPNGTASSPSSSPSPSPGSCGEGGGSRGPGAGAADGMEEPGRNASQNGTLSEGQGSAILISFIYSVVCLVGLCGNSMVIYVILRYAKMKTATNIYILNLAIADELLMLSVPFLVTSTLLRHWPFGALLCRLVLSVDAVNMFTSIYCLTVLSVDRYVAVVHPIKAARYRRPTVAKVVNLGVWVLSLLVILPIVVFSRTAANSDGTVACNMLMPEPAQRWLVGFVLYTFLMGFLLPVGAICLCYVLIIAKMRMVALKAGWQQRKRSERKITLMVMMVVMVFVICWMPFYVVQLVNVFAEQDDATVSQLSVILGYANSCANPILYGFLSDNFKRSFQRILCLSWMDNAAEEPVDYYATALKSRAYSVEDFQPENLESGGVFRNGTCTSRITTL
Procedure: as §1, §2, §3, §4

HUVEC tube formation = assay: Matrigel tube formation assay; assay type: cell-based, human; conditions: Homo sapiens, 22 h
Procedure: HUVEC (Clonetics) were plated in 96 well plates in EGM-2 media (Clonetics) at 2.5 to 3×10^4 cells per well. Cells of less than 6 passages were used in all studies. Wells were precoated with 50 μL growth factor containing Matrigel (Becton Dickinson). HUVEC were allowed to form tubes by incubation at 37° C. in 5% CO2 for 22 hrs. In test wells compound was added in the desired concentration. Photographic images of the wells ×4 magnification were used to determine size of the tubes, length of tubes and number of junctions using image analysis software.

[3] = test system: MV522 human NSCLC tumour xenograft; assay: Nude mouse model of human MV522 non-small cell lung cancer tumours; assay type: in vivo, nude mice; conditions: group five: paclitaxel 16 mg/kg i.p. qdx5 alone
Procedure: Initial Maximum Tolerated Dose (MTD) studies were done in male nude mice to determine the appropriate intravenous dosing regimen for the MV522 human NSCLC tumour model. A range of doses between 0 and 50 mg/Kg for 28 days (qdx28) were tested. Mice were randomized into groups with 5 animals per group including vehicle control. Animals were weighed twice weekly starting on day one and observed daily for adverse reactions or toxicity due to the agent. MTD studies determined the selection of 20 mg/kg and 35 mg/kg for intravenous dosing once per day for 28 days in the MV522 human NSCLC tumour xenograft model.
Male nude mice (nu/nu) between 5 and 6 weeks of age weighing approximately 20 g were implanted subcutaneously (s.c) by trocar with fragments of MV522 human tumour carcinomas harvested from s.c growing tumours in host mice. MV-522 is a metastatic human lung adenocarcinoma line. When tumours reached approximately 72 mg in size animals were pair matched into treatment and control groups with 10 mice in each group. Each mouse was tagged and followed individually throughout the experiment.
“Compound 1” was administered i.v. in a saline vehicle from day one. Vehicle control group animals were administered saline i.v. There were nine treatment groups including the vehicle control group. […]
At the end of the treatment period the mice were weighed and sacrificed. Each tumour was excised and weighed and a mean actual tumour weight (mg) per group was calculated along with the mean actual volume (mm^3). […] Mean tumour regression was determined using the formula [1−(mean actual tumour weightFINAL/mean tumour weightDAY 1)×100%].

in vitro = conditions: human, Caco-2
Procedure: The Caco-2 assay was performed according to the procedure described in the following cited article [Caco-2 Monolayers in Experimental and Theoretical Predictions of Drug Transport, Artursson P, Palm K, Luthman K., Adv. Drug Deliv. Rev., 2001, 46, 27-43].

T1 sequence (P31391 whole entry): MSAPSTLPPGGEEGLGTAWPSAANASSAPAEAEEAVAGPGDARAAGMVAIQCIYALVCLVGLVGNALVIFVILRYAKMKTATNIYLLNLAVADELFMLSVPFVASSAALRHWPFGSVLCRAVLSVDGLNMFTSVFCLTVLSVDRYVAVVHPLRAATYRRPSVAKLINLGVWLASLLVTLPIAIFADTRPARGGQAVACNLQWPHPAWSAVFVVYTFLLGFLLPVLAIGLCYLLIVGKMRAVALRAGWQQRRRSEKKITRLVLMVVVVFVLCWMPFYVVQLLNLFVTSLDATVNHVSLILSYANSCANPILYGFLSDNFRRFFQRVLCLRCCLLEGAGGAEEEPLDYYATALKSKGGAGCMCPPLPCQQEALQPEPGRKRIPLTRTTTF

Ki (SSTR-4) [nM]	Ki (SSTR-2) [nM]	IC50 ([2]; shown where Ki could not be determined (NoModel), read-out: IC50 SSTR5 (in parentheses)) [nM]	IC50 (SSTR-3) [nM]	Ki (SSTR-1) [nM]	Ki [2] [nM]	Papp (in vitro) [×10⁻⁶ cm/s]	Compound	Percent cell growth at 125 µM [1] [%]	Percent cell growth at 250 µM [1] [%]	EC50 (HUVEC tube formation) [nM]	Tumour growth inhibition (TGI) [3] [%]
463	490	1.1	0.8	> 10000	–	–	CS[C@@H]1O[C@H](COCc2ccc(Cl)cc2)[C@@H](O)[C@@H](OCc2ccc3ccccc3c2)[C@H]1NC(=O)CCN [Compound 9]	-86	-78	50000	–
–	726	–	228	> 10000	220	–	CS[C@@H]1O[C@H](COCc2ccc3ccccc3c2)[C@@H](O)[C@@H](OCc2ccc3ccccc3c2)[C@H]1NC(=O)CCN [Compound 10]	-85	-63	125000	–
–	–	–	–	–	–	–	CC(=O)O[C@H]1C(=O)[C@@]2(C)[C@H]([C@H](OC(=O)c3ccccc3)[C@]3(O)C[C@H](OC(=O)[C@H](O)[C@@H](NC(=O)c4ccccc4)c4ccccc4)C(C)=C1C3(C)C)[C@]1(OC(C)=O)CO[C@@H]1C[C@@H]2O [paclitaxel, reference compound]	–	–	–	42.1
–	–	–	–	–	–	0.813	OC[C@@H](O)[C@@H](O)[C@H](O)[C@H](O)CO [mannitol, reference compound]	–	–	–	–
